The target of data set [1] is BRDT(1) (Homo sapiens, UniProt Q58F21). The settings on record: alpha-screen, H4Kac4 competition. For orientation: Alpha assays give light when donor and acceptor beads are brought close together.
Protocol: The N-terminal domain of human BRDT was cloned, expressed in E-Coli and purified as previously described (Filippakopoulos et al.).
Assays were performed with minor modifications from the manufacturer's protocol (PerkinElmer, USA). All reagents were diluted in 50 mM HEPES, 150 mM NaCl, 0.1% w/v BSA, 0.01% w/v Tween20, pH 7.5 and allowed to equilibrate to room temperature prior to addition to plates. After addition of Alpha beads to master solutions all subsequent steps were performed in low light conditions. […] Addition to wells was performed with either a multichannel pipet (for optimization experiments) or a Biotek EL406 liquid handler. After a 1 minute 1000 rpm spin-down, 100 nl of compounds from stock plates were added by pin transfer using a Janus Workstation (PerkinElmer, USA). The streptavidin-coated donor beads (25 μg/ml final) were added as with previous solution in a 2×, 10 μl volume. Following this addition, the plates were sealed with foil to block light exposure and to prevent evaporation. The plates were spun down again at 1000 rpm for 1 minute.
Data set [2] deals with C57BL6/J/129S5 hybrid male mice. Briefly: Mouse study: testes size and histology after daily i.p. JQ1. As for the experimental part: (§1) The subsequent mixture was injected intraperitoneal into male mice at 1% of the body weight of the mouse (final amount is 50 mg/kg/day). The control was DMSO dissolved 1:10 in (2-Hydroxypropyl)-β-cyclodextrin and injected similarly. […] These studies were approved by the Administrative Committee on Laboratory Animal Care at Baylor College of Medicine, and all experiments were conducted in accordance with the NIH guide for the Care and Use of Laboratory Animals.

The test system is the same in data set [3]. The experiment in a line: Male fertility, fertilization and embryo developmental potential. The method, then: Oocytes from these females were collected from their oviductal ampulla and cultured for 2 days to determine their developmental potential post-mating (FIG. 6B).
as §1

`Cc1sc2c(c1C)C(c1ccc(Cl)cc1)=N[C@H](CC(=O)OC(C)(C)C)c1nnc(C)n1-2` (racemic) [(−)-JQ1]: the “activity for BRDT(1)” value in data set [1] is “inactive”.
For the molecule `Cc1sc2c(c1C)C(c1ccc(Cl)cc1)=NC(CC(=O)OC(C)(C)C)c1nnc(C)n1-2` (racemic) [JQ1, tert-Butyl 2-(4-(4-chlorophenyl)-2,3,9-trimethyl-6H-thieno[3,2-f][1,2,4]triazolo[4,3-a][1,4]diazepin-6-yl)acetate], in data set [2] (50 mg/kg/day i.p.), the “Leydig cells of the testes, histology” value is given as “histologically normal”; the “gross testes size compared to control males” value was “grossly smaller testes”; the “testosterone-responsive seminal vesicles, gross appearance” value was “grossly normal”. Also, the testis histology result in data set [2] (50 mg/kg/day i.p., 6 weeks treatment) is listed as “seminiferous tubule degeneration”. The “number of spermatids positive for transition protein 1 (TNP1)” value in data set [2] (immunohistochemistry of testes) is given as “reduced”. For the same molecule, the “crossing of the blood:testis boundary” value in data set [2] (inferred from effect on seminiferous tubule compartment) is recorded as “capable of effectively crossing the blood:testis boundary”. In addition, the “mating behavior (copulation plugs)” value in data set [3] (after 5 weeks of treatment, superovulated females) is given as “did not alter mating behavior”. For the same molecule, the “effect on impregnation of females” value in data set [3] (males treated 3 weeks, housed with 2 females each, 3 more weeks of treatment, n=3) is recorded as “contraceptive effect”. The “treated adult male mice that sired two litters after cessation” value in data set [3] (within the first month following cessation of JQ1) is 6 of 6.
